Calls of active or inactive are those of the source. The rule behind the calls is not given here.
Key:
[1] = tested on: ECa-109 cell line; experiment: Induction of apoptosis in human EC109 cells assessed as increase in early apoptotic cells at 2.5 to 40 uM by annexin V-FITC/propidium iodide staining-based flow cytometric analysis; type: functional, cell-based; details: TDE = time-dependent effect
[2] = tested on: ECa-109 cell line; experiment: Induction of apoptosis in human EC109 cells assessed as live cells at 5 uM after 12 hrs by annexin V-FITC/propidium iodide staining-based flow cytometric analysis (reference value: 92.1%); type: functional
[3] = tested on: ECa-109 cell line; experiment: Induction of apoptosis in human EC109 cells assessed as live cells at 5 uM after 24 hrs by annexin V-FITC/propidium iodide staining-based flow cytometric analysis (reference value: 93.6%); type: functional
[4] = Cell cycle arrest in human EC109 cells assessed as accumulation at G0/G1 phase at 5 uM after 24 hrs by propidium iodide staining-based flow cytometric analysis (reference value: 51.57%); type: functional; details: ECa-109
[5] = tested on: ECa-109 cell line; experiment: Induction of apoptosis in human EC109 cells assessed as damaged cells at 20 uM after 12 hrs by annexin V-FITC/propidium iodide staining-based flow cytometric analysis (reference value: 0.4%); type: functional
[6] = tested on: ECa-109 cell line; experiment: Induction of apoptosis in human EC109 cells assessed as late apoptotic cells at 10 uM after 12 hrs by annexin V-FITC/propidium iodide staining-based flow cytometric analysis (reference value: 1.4%); type: functional
[7] = Cell cycle arrest in human EC109 cells assessed as accumulation at G0/G1 phase at 2.5 uM after 12 hrs by propidium iodide staining-based flow cytometric analysis (reference value: 50.87%); type: functional; details: ECa-109
[8] = tested on: ECa-109; experiment: Disruption of mitochondrial membrane potential in human EC109 cells after 24 hrs by JC1 staining-based flow cytometric analysis; type: functional, cell-based
[9] = tested on: ECa-109 cell line; experiment: Induction of apoptosis in human EC109 cells assessed as induction of cytochrome c release from mitochondria at 5 to 10 uM after 24 hrs by Western blot analysis; type: functional, cell-based
[10] = tested on: ECa-109 cell line; experiment: Induction of apoptosis in human EC109 cells assessed as damaged cells at 5 uM after 24 hrs by annexin V-FITC/propidium iodide staining-based flow cytometric analysis (reference value: 0.1%); type: functional
[11] = tested on: ECa-109 cell line; experiment: Induction of apoptosis in human EC109 cells assessed as damaged cells at 40 uM after 24 hrs by annexin V-FITC/propidium iodide staining-based flow cytometric analysis (reference value: 0.1%); type: functional
[12] = tested on: ECa-109 cell line; experiment: Induction of apoptosis in human EC109 cells assessed as damaged cells at 2.5 uM after 24 hrs by annexin V-FITC/propidium iodide staining-based flow cytometric analysis (reference value: 0.1%); type: functional
[13] = Cell cycle arrest in human EC109 cells assessed as accumulation at G2/M phase at 2.5 uM after 12 hrs by propidium iodide staining-based flow cytometric analysis (reference value: 13.72%); type: functional; details: ECa-109
[14] = tested on: ECa-109 cell line; experiment: Induction of apoptosis in human EC109 cells assessed as early apoptotic cells at 2.5 uM after 12 hrs by annexin V-FITC/propidium iodide staining-based flow cytometric analysis (reference value: 6.1%); type: functional
[15] = Cell cycle arrest in human EC109 cells assessed as accumulation at G2/M phase at 10 uM after 24 hrs by propidium iodide staining-based flow cytometric analysis (reference value: 6.31%); type: functional; details: ECa-109
[16] = tested on: ECa-109 cell line; experiment: Induction of apoptosis in human EC109 cells assessed as late apoptotic cells at 5 uM after 12 hrs by annexin V-FITC/propidium iodide staining-based flow cytometric analysis (reference value: 1.4%); type: functional
[17] = Cell cycle arrest in human EC109 cells assessed as accumulation at G2/M phase at 5 uM after 24 hrs by propidium iodide staining-based flow cytometric analysis (reference value: 6.31%); type: functional; details: ECa-109
[18] = Cell cycle arrest in human EC109 cells assessed as accumulation at G2/M phase at 2.5 uM after 24 hrs by propidium iodide staining-based flow cytometric analysis (reference value: 6.31%); type: functional; details: ECa-109
[19] = tested on: ECa-109 cell line; experiment: Induction of apoptosis in human EC109 cells assessed as early apoptotic cells at 10 uM after 12 hrs by annexin V-FITC/propidium iodide staining-based flow cytometric analysis (reference value: 6.1%); type: functional
[20] = tested on: ECa-109 cell line; experiment: Induction of apoptosis in human EC109 cells assessed as increase in late apoptotic cells at 2.5 to 40 uM by annexin V-FITC/propidium iodide staining-based flow cytometric analysis; type: functional, cell-based; details: TDE = time-dependent effect
[21] = tested on: PC-3; experiment: Cytotoxicity against human PC3 cells assessed as growth inhibition after 72 hrs by MTT assay; type: functional, cell-based; details: PC-3, 72 h
[22] = tested on: ECa-109 cell line; experiment: Induction of apoptosis in human EC109 cells assessed as late apoptotic cells at 20 uM after 12 hrs by annexin V-FITC/propidium iodide staining-based flow cytometric analysis (reference value: 1.4%); type: functional
[23] = tested on: ECa-109 cell line; experiment: Induction of apoptosis in human EC109 cells assessed as activation of caspase-3/9 at 5 to 10 uM after 24 hrs by Western blot analysis; type: functional, cell-based
[24] = tested on: ECa-109 cell line; experiment: Induction of apoptosis in human EC109 cells assessed as damaged cells at 20 uM after 24 hrs by annexin V-FITC/propidium iodide staining-based flow cytometric analysis (reference value: 0.1%); type: functional
[25] = Upregulation of p53 protein expression in human EC109 cells at 5 to 10 uM after 24 hrs by Western blot analysis; type: functional, cell-based; details: ECa-109
[26] = Cytotoxicity against human EC109 cells assessed as growth inhibition after 72 hrs by MTT assay; type: functional, cell-based; details: ECa-109, 72 h
[27] = tested on: ECa-109 cell line; experiment: Induction of apoptosis in human EC109 cells assessed as nuclear condensation at 1.25 to 20 uM after 24 hrs by Hoechst 33258 staining-based fluorescence microscopic analysis; type: functional, cell-based
[28] = tested on: ECa-109 cell line; experiment: Induction of apoptosis in human EC109 cells assessed as late apoptotic cells at 2.5 uM after 12 hrs by annexin V-FITC/propidium iodide staining-based flow cytometric analysis (reference value: 1.4%); type: functional
[29] = tested on: MCF7; experiment: Cytotoxicity against human MCF7 cells assessed as growth inhibition after 72 hrs by MTT assay; type: functional, cell-based; details: MCF7, 72 h
[30] = tested on: ECa-109 cell line; experiment: Induction of apoptosis in human EC109 cells assessed as increase in late apoptotic cells after 12 to 24 hrs by annexin V-FITC/propidium iodide staining-based flow cytometric analysis; type: functional, cell-based
[31] = Cell cycle arrest in human EC109 cells assessed as accumulation at G0/G1 phase at 10 uM after 12 hrs by propidium iodide staining-based flow cytometric analysis (reference value: 50.87%); type: functional; details: ECa-109
[32] = tested on: ECa-109 cell line; experiment: Induction of apoptosis in human EC109 cells assessed as damaged cells at 10 uM after 24 hrs by annexin V-FITC/propidium iodide staining-based flow cytometric analysis (reference value: 0.1%); type: functional
[33] = Cell cycle arrest in human EC109 cells assessed as accumulation at G2/M phase at 10 uM after 12 hrs by propidium iodide staining-based flow cytometric analysis (reference value: 13.72%); type: functional; details: ECa-109
[34] = tested on: ECa-109 cell line; experiment: Induction of apoptosis in human EC109 cells assessed as early apoptotic cells at 20 uM after 24 hrs by annexin V-FITC/propidium iodide staining-based flow cytometric analysis (reference value: 3.8%); type: functional
[35] = tested on: SMMC-7721; experiment: Cytotoxicity against human SMMC7721 cells assessed as growth inhibition after 72 hrs by MTT assay; type: functional, cell-based; details: SMMC-7721, 72 h
[36] = tested on: ECa-109 cell line; experiment: Induction of apoptosis in human EC109 cells assessed as live cells at 10 uM after 24 hrs by annexin V-FITC/propidium iodide staining-based flow cytometric analysis (reference value: 93.6%); type: functional

C[C@]12CC[C@H](O)CC1=CC[C@@H]1[C@@H]2CC[C@]2(C)c3nc4ncnn4c(-c4cccc(-c5c6c(nc7ncnn57)[C@@]5(C)CC[C@H]7[C@@H](CC=C8C[C@@H](O)CC[C@@]87C)[C@@H]5C6)c4)c3C[C@@H]12
Activity [1]: tde
Activity [2]: 59.9%
Activity [3]: 48.2%
Activity [4]: 47.1%
Activity [5]: 2.1%
Activity [6]: 23.4%
Activity [7]: 48.5%
Activity [8]: Dose-dependent effect
Activity [9]: Active
Activity [10]: 0.4%
Activity [11]: 1.3%
Activity [12]: 0.2%
Activity [13]: 17.9%
Activity [14]: 26.9%
Activity [15]: 25.1%
Activity [16]: 14%
Activity [17]: 19.4%
Activity [18]: 14.8%
Activity [19]: 19.9%
Activity [20]: tde
IC50 [21]: 3180 nM
Activity [22]: 51.1%
Activity [23]: Active
Activity [24]: 2.4%
Activity [25]: Active
IC50 [26]: 2360 nM
Activity [27]: Active
Activity [28]: 13.1%
IC50 [29]: 1190 nM
Activity [30]: Dose-dependent effect
Activity [31]: 48.6%
Activity [32]: 2.9%
Activity [33]: 28.3%
Activity [34]: 31.5%
IC50 [35]: 1680 nM
Activity [36]: 25.4%

From ChEMBL document CHEMBL2434882, “A novel [1,2,4] triazolo [1,5-a] pyrimidine-based phenyl-linked steroid dimer: synthesis and its cytotoxic activity” (Eur J Med Chem, 2013)
